This passage reports Ki and inhibition results from patent publication US20120165331A1, “Di/tri-aza-spiro-C9-C11alkanes” (priority 2010, published 2012).

The term pKi denotes the negative decadic logarithm of the Ki, by convention in mol/L. What is called inhibition is the change of the read-out against control, counted positive when it falls.

The target of one assay is T1, human orexin 2 receptor (Homo sapiens, UniProt O43614).
T1 construct: expressed in transfected cells
T1 sequence (O43614 1-444): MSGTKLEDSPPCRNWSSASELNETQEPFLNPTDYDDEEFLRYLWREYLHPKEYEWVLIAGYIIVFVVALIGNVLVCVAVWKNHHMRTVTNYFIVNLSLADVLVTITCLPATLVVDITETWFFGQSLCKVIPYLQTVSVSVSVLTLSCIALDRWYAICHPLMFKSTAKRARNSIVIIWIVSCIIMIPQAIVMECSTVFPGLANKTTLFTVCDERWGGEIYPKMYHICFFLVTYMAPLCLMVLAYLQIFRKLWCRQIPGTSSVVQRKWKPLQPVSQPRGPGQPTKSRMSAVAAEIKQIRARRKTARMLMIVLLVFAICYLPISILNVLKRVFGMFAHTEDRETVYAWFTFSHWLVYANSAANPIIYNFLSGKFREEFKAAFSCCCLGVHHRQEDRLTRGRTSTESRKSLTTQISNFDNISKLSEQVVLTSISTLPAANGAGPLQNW
Description: Calcium accumulation in cells (FLIPR), antagonism of orexin A, human orexin 2 receptor. The conditions noted are these: for pKi: calcium accumulation, antagonism of orexin A, Cheng-Prusoff corrected, read-out: FLIPR hOx2R Ki; for inhibition at 10 µM: measured at a concentration of 10 μM of compound, read-out: FLIPR hOx2R % inhibition. The format is cell-based.

For the next assay, the target named is T2, human orexin 1 receptor (Homo sapiens, UniProt O43613).
T2 construct: expressed in transfected cells
T2 sequence (O43613 1-425): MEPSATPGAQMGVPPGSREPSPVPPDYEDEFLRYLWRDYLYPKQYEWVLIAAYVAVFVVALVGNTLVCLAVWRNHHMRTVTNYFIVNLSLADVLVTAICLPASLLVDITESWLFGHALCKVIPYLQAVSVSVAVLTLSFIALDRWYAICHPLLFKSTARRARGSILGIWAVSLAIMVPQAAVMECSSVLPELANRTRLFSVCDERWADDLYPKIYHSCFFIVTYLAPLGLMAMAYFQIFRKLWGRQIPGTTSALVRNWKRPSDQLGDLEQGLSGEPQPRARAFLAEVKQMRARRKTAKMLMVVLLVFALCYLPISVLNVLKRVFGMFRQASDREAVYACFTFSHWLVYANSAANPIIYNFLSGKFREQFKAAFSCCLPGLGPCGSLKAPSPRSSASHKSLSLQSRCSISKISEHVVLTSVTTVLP
Kind of assay: Calcium accumulation in cells (FLIPR), antagonism of orexin A, human orexin 1 receptor. Conditions: for pKi: calcium accumulation, antagonism of orexin A, Cheng-Prusoff corrected, read-out: FLIPR hOx1R Ki; for inhibition at 10 µM: measured at a concentration of 10 μM of compound, read-out: FLIPR hOx1R % inhibition. It counts as cell-based.

pKi: −log10 of the molar value. A value given as a limit tells only on which side of the number the result lay.

`Cc1noc(-c2ccnc(N3CCC4(CCN(Cc5c[nH]c6ccccc56)C4=O)C3)c2)n1` (stereo not drawn) [Example 5.34, 2-((1H-indol-3-yl)methyl)-7-(4-(3-methyl-1,2,4-oxadiazol-5-yl)pyridin-2-yl)-2,7-diazaspiro[4.4]nonan-1-one]: the negative-log Ki (pKi) on human orexin 2 receptor was 5.83; at human orexin 1 receptor, 5.67.

`O=C1N(Cc2c[nH]c3ccccc23)CCC12CCN(c1cc(N3CCCC3)ncn1)C2` (stereo not drawn) [Example 5.35, 2-((1H-indol-3-yl)methyl)-7-(6-(pyrrolidin-1-yl)pyrimidin-4-yl)-2,7-diazaspiro[4.4]nonan-1-one]: the negative-log Ki (pKi) on human orexin 2 receptor was 5.57; at human orexin 1 receptor, 5.75.

Consider `COc1nc(C)cc(N2CCC3(CCN(Cc4c[nH]c5ccccc45)C3=O)C2)n1` (stereo not drawn) [Example 5.36, 2-((1H-indol-3-yl)methyl)-7-(2-methoxy-6-methylpyrimidin-4-yl)-2,7-diazaspiro[4.4]nonan-1-one], for which the pKi at human orexin 2 receptor was 6.03. In addition, the inhibition at 10 µM at human orexin 1 receptor turned out to be 18%.

Turning to `Cc1csc(N2CCC3(CCN(Cc4c[nH]c5ccccc45)C3=O)C2)n1` (stereo not drawn) [Example 5.37, 2-((1H-indol-3-yl)methyl)-7-(4-methylthiazol-2-yl)-2,7-diazaspiro[4.4]nonan-1-one], the pKi is 5.85 on human orexin 2 receptor and 5.44 on human orexin 1 receptor.

Consider `COc1cc(N2CCC3(CCN(Cc4c[nH]c5ccccc45)C3=O)C2)n2nccc2n1` (stereo not drawn) [Example 5.38, 2-((1H-indol-3-yl)methyl)-7-(5-methoxypyrazolo[1,5-a]pyrimidin-7-yl)-2,7-diazaspiro[4.4]nonan-1-one], for which the negative-log Ki (pKi) at human orexin 2 receptor is 5.99; at human orexin 1 receptor, 5.62.

For `CC(C)c1ccnc(N2CCC3(CCN(Cc4c[nH]c5ccccc45)C3=O)C2)n1` (stereo not drawn) [Example 5.39, 2-((1H-indol-3-yl)methyl)-7-(4-isopropylpyrimidin-2-yl)-2,7-diazaspiro[4.4]nonan-1-one], the pKi is 6.55 on human orexin 2 receptor and 5.92 at human orexin 1 receptor.

In the case of `Cc1cn2ccnc(N3CCC4(CCN(Cc5c[nH]c6ccccc56)C4=O)C3)c2n1` (stereo not drawn) [Example 5.40, 2-((1H-indol-3-yl)methyl)-7-(2-methylimidazo[1,2-a]pyrazin-8-yl)-2,7-diazaspiro[4.4]nonan-1-one], the negative logarithm of the Ki (pKi) at human orexin 2 receptor was 6.73; at human orexin 1 receptor, 5.76.

As for `O=C1N(Cc2c[nH]c3ccccc23)CCC12CCN(c1nccc(C(F)(F)F)n1)C2` (stereo not drawn) [Example 5.41, 2-((1H-indol-3-yl)methyl)-7-(4-(trifluoromethyl)pyrimidin-2-yl)-2,7-diazaspiro[4.4]nonan-1-one], the negative-log Ki (pKi) at human orexin 2 receptor is 6.46; on human orexin 1 receptor, 5.62.

On to `COc1cc(C)nc(N2CCC3(CCN(Cc4ccccc4-c4nc(C)no4)C3=O)C2)n1` (stereo not drawn) [Example 5.42, 7-(4-methoxy-6-methylpyrimidin-2-yl)-2-(2-(3-methyl-1,2,4-oxadiazol-5-yl)benzyl)-2,7-diazaspiro[4.4]nonan-1-one], for which the figures for the pKi on human orexin 2 receptor and on human orexin 1 receptor were 6.74 and 5.71, respectively.

With `COc1cc(C)nc(N2CCC3(CCN(Cc4nn(C)nc4Br)C3=O)C2)n1` (stereo not drawn) [Example 5.46, 2-((5-bromo-2-methyl-2H-1,2,3-triazol-4-yl)methyl)-7-(4-methoxy-6-methylpyrimidin-2-yl)-2,7-diazaspiro[4.4]nonan-1-one], the inhibition at 10 µM was 21% at human orexin 2 receptor and < 10% at human orexin 1 receptor.

Turning to `O=C1N(Cc2c[nH]c3ccccc23)CCC12CCCN(c1cnc3ccccc3n1)C2` (stereo not drawn) [Example 6.1], the pKi was 6.19 on human orexin 2 receptor and 5.95 on human orexin 1 receptor.

As for `COc1ccnc(N2CCC3(CCCN(Cc4c[nH]c5ncccc45)C3=O)C2)n1` (stereo not drawn) [Example 7.2, 7-((1H-Pyrrolo[2,3-b]pyridin-3-yl)methyl)-2-(4-methoxypyrimidin-2-yl)-2,7-diazaspiro[4.5]decan-6-one], the pKi was 6.15 on human orexin 2 receptor and 5.49 at human orexin 1 receptor.

Consider `COc1ccnc(N2CCC3(CCCN(Cc4n[nH]c5ccccc45)C3=O)C2)n1` (stereo not drawn) [Example 7.3, 7-((1H-Indazol-3-yl)methyl)-2-(4-methoxypyrimidin-2-yl)-2,7-diazaspiro[4.5]decan-6-one], for which the pKi is 6.63 at human orexin 2 receptor and 5.84 on human orexin 1 receptor.

In the case of `COc1ccnc(N2CCC3(CCCN(Cc4ccccc4-c4nc(C)no4)C3=O)C2)n1` (stereo not drawn) [Example 7.5, 2-(4-Methoxypyrimidin-2-yl)-7-(2-(3-methyl-1,2,4-oxadiazol-5-yl)benzyl)-2,7-diazaspiro[4.5]decan-6-one], the pKi is 6.66 at human orexin 2 receptor and 6.01 on human orexin 1 receptor.

Turning to `COc1cccc(-c2nn(C)nc2CN2CCCC3(CCN(c4nccc(OC)n4)C3)C2=O)c1` (stereo not drawn) [Example 7.7, 7-((5-(3-Methoxyphenyl)-2-methyl-2H-1,2,3-triazol-4-yl)methyl)-2-(4-methoxypyrimidin-2-yl)-2,7-diazaspiro[4.5]decan-6-one], the negative logarithm of the Ki (pKi) at human orexin 2 receptor was 6.44; on human orexin 1 receptor it was 6.27.

With `O=C1N(Cc2c[nH]c3ccccc23)CCCC12CCN(c1nc3ccccc3o1)C2` (stereo not drawn) [Example 7.8, 7-((1H-Indol-3-yl)methyl)-2-(benzo[d]oxazol-2-yl)-2,7-diazaspiro[4.5]decan-6-one], the pKi at human orexin 2 receptor is 6.77; on human orexin 1 receptor it was 7.01.

As to `COc1cc(C)nc(N2CCC3(CCCN(Cc4c[nH]c5ncccc45)C3=O)C2)n1` (stereo not drawn) [Example 7.13, 7-((1H-pyrrolo[2,3-b]pyridin-3-yl)methyl)-2-(4-methoxy-6-methylpyrimidin-2-yl)-2,7-diazaspiro[4.5]decan-6-one], the results for the pKi at human orexin 2 receptor and at human orexin 1 receptor were 6.94 and 6.52, respectively.

Take `Cc1cncc(N2CCC3(CCC(=O)N3Cc3cccc4[nH]ccc34)CC2)n1` [Example 8.2, 1-((1H-Indol-4-yl)methyl)-8-(6-methylpyrazin-2-yl)-1,8-diazaspiro[4.5]decan-2-one]: at human orexin 2 receptor, the negative logarithm of the Ki (pKi) is 6.88. Also, on human orexin 1 receptor, the inhibition at 10 µM is 12%.

Consider `O=C1COCC2(CCN(c3cnc4ccccc4n3)CC2)N1Cc1c[nH]c2ccccc12` [Example 8.8, 1-((1H-Indol-3-yl)methyl)-9-(quinoxalin-2-yl)-4-oxa-1,9-diazaspiro[5.5]undecan-2-one], for which, on human orexin 2 receptor, the pKi is 6.20. Besides, the inhibition at 10 µM on human orexin 1 receptor was 33%.

As to `Cn1ccc2c(CN3C(=O)COCC34CCN(c3cnc5ccccc5n3)CC4)cccc21` [Example 8.10, 1-((1-Methyl-1H-indol-4-yl)methyl)-9-(quinoxalin-2-yl)-4-oxa-1,9-diazaspiro[5.5]undecan-2-one], the negative logarithm of the Ki (pKi) at human orexin 2 receptor was 6.69; on human orexin 1 receptor, 6.58.

Regarding `O=C1COCC2(CCN(c3cnc4ccccc4n3)CC2)N1Cc1cccc(-c2cccnc2)c1` [Example 8.12, 1-(3-(Pyridin-3-yl)benzyl)-9-(quinoxalin-2-yl)-4-oxa-1,9-diazaspiro[5.5]undecan-2-one], the inhibition at 10 µM at human orexin 2 receptor is 30%. Besides, on human orexin 1 receptor, the negative logarithm of the Ki (pKi) was 6.63.

With `Cc1ccc(C)c(CN2C(=O)COCC23CCN(c2cncc(C)n2)CC3)c1` [Example 8.13, 1-(2,5-Dimethylbenzyl)-9-(6-methylpyrazin-2-yl)-4-oxa-1,9-diazaspiro[5.5]undecan-2-one], the negative logarithm of the Ki (pKi) on human orexin 2 receptor is 6.39. Moreover, the inhibition at 10 µM at human orexin 1 receptor is < 10%.

In the case of `Cc1cncc(N2CCC3(CC2)COCC(=O)N3Cc2cccc3[nH]ccc23)n1` [Example 8.14, 1-((1H-Indol-4-yl)methyl)-9-(6-methylpyrazin-2-yl)-4-oxa-1,9-diazaspiro[5.5]undecan-2-one], the pKi on human orexin 2 receptor is 6.30. The inhibition at 10 µM at human orexin 1 receptor came out at 14%.

Take `N#Cc1ccnc(N2CCC3(CC2)COCC(=O)N3Cc2cccc3[nH]ccc23)c1` [Example 8.16, 2-(1-((1H-Indol-4-yl)methyl)-2-oxo-4-oxa-1,9-diazaspiro[5.5]undecan-9-yl)isonicotinonitrile]: the pKi on human orexin 2 receptor is 5.99. For the same compound, at human orexin 1 receptor, the inhibition at 10 µM was < 10%.

Regarding `N#Cc1cccc(N2CCC3(CC2)COCC(=O)N3Cc2cccc3[nH]ccc23)n1` [Example 8.17, 6-(1-((1H-Indol-4-yl)methyl)-2-oxo-4-oxa-1,9-diazaspiro[5.5]undecan-9-yl)picolinonitrile], the pKi at human orexin 2 receptor was 6.23. The inhibition at 10 µM on human orexin 1 receptor is 40%.

Consider `N#Cc1ccnc(N2CCC3(CC2)COCC(=O)N3Cc2cccc3[nH]ccc23)n1` [Example 8.18, 2-(1-((1H-Indol-4-yl)methyl)-2-oxo-4-oxa-1,9-diazaspiro[5.5]undecan-9-yl)pyrimidine-4-carbonitrile], for which the negative-log Ki (pKi) at human orexin 2 receptor is 6.00. Also, at human orexin 1 receptor, the inhibition at 10 µM was found to be 25%.

`Cc1ccnc(N2CCC3(CC2)COCC(=O)N3Cc2cccc3[nH]ccc23)n1` [Example 8.19, 1-((1H-Indol-4-yl)methyl)-9-(4-methylpyrimidin-2-yl)-4-oxa-1,9-diazaspiro[5.5]undecan-2-one]: the pKi at human orexin 2 receptor was 6.16. Moreover, at human orexin 1 receptor, the inhibition at 10 µM was found to be 28%.
